# Reference: ChEMBL document CHEMBL3112510, “Optimization, pharmacophore modeling and 3D-QSAR studies of sipholanes as breast cancer migration and proliferation inhibitors” (Eur J Med Chem, 2014)
# Active and inactive are the calls of the source. The calls are words filed in the database; no cut-off is given here.
# Experiments:
# [1] = Cytotoxicity against human MCF10A cells at => IC50 of antiproliferative assay after 24 hrs by MTT assay; conditions: mcf-10a
# MDA-MB-231 [2] = experiment: Antiproliferative activity against human MDA-MB-231 cells after 72 hrs by MTT assay; conditions: MDA-MB-231, 72 h
# MCF7 = experiment: cells; conditions: Homo sapiens, MCF7, 72 h
# MDA-MB-231 [3] = experiment: Antimigratory activity in human MDA-MB-231 cells after 24 hrs by wound healing assay; conditions: MDA-MB-231, 24 h
# [4] = Cytotoxicity against human MCF10A cells at => IC50 of wound healing assay after 24 hrs by MTT assay; conditions: mcf-10a
# [5] = biological target: Protein-tyrosine kinase 6 (Homo sapiens) (UniProt Q13882); experiment: Inhibition of PTK6 phosphorylation in human MDA-MB-231 cells at 20 uM after 72 hrs by Western blot analysis; format: cell-based
# Sequence of Protein-tyrosine kinase 6 (Homo sapiens) (Q13882 whole entry, looked up): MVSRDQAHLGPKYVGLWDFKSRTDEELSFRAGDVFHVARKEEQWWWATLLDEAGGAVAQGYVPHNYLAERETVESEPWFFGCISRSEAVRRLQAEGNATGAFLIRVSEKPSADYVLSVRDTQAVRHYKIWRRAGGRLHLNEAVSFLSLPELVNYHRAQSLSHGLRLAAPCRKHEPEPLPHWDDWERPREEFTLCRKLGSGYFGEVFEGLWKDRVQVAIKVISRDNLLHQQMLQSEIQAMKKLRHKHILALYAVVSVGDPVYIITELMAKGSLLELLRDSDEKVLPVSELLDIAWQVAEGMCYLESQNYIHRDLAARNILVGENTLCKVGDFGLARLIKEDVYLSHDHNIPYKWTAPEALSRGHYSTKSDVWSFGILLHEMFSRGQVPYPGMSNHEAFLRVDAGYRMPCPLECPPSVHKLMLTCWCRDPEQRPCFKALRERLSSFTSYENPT
structure (smiles),measurement,setting,value
CC1=CC[C@H]2[C@H](CC[C@]2(C)O)C(C)(C)[C@@H]1CC[C@H]1[C@]2(C)CC[C@H](OC(=O)c3ccccc3F)C(C)(C)O[C@H]2CC[C@@]1(C)O,Activity,[1],Non-toxic
same,IC50,MDA-MB-231 [2],28.7 µM
same,IC50,MCF7,11.3 µM
same,IC50,MDA-MB-231 [3],22.7 µM
same,IC50,MDA-MB-231 [3]; read-out: pIC50 (converted),22.7 µM
same,Activity,[4],Non-toxic
CC1=CC[C@H]2[C@H](CC[C@]2(C)O)C(C)(C)[C@@H]1CC[C@H]1[C@]2(C)CC[C@H](OC(=O)c3ccccc3)C(C)(C)O[C@H]2CC[C@@]1(C)O,IC50,MDA-MB-231 [2],16.1 µM
same,IC50,MCF7,21 µM
same,inhibition,[5],Active
same,IC50,MDA-MB-231 [3],7.9 µM
same,IC50,MDA-MB-231 [3]; read-out: pIC50 (converted),7.91 µM
COc1ccc(C(=O)O[C@H]2CC[C@]3(C)[C@H](CC[C@@](C)(O)[C@H]3CC[C@@H]3C(C)=CC[C@H]4[C@H](CC[C@]4(C)O)C3(C)C)OC2(C)C)cc1,Activity,[1],Non-toxic
same,IC50,MDA-MB-231 [2],30.6 µM
same,IC50,MCF7,41.7 µM
same,IC50,MDA-MB-231 [3],17.9 µM
same,IC50,MDA-MB-231 [3]; read-out: pIC50 (converted),17.9 µM
same,Activity,[4],Non-toxic
CC1=CC[C@H]2[C@H](CC[C@]2(C)O)C(C)(C)[C@@H]1CC[C@H]1[C@]2(C)CC[C@H](OC(=O)c3ccc(C(F)(F)F)cc3F)C(C)(C)O[C@H]2CC[C@@]1(C)O,Activity,[1],Non-toxic
same,IC50,MDA-MB-231 [2],36.3 µM
same,IC50,MCF7,> 50 µM
same,IC50,MDA-MB-231 [3],26.4 µM
same,IC50,MDA-MB-231 [3]; read-out: pIC50 (converted),26.4 µM
same,Activity,[4],Non-toxic
CC1=CC[C@H]2[C@H](CC[C@]2(C)O)C(C)(C)[C@@H]1CC[C@H]1[C@]2(C)CC[C@H](OC(=O)c3ccc(F)cc3)C(C)(C)O[C@H]2CC[C@@]1(C)O,Activity,[1],Non-toxic
same,IC50,MDA-MB-231 [2],11.3 µM
same,IC50,MCF7,33.5 µM
same,IC50,MDA-MB-231 [3],2.4 µM
same,IC50,MDA-MB-231 [3]; read-out: pIC50 (converted),2.4 µM
same,Activity,[4],Non-toxic
CC1=CC[C@H]2[C@H](CC[C@]2(C)O)C(C)(C)[C@@H]1CC[C@H]1[C@]2(C)CC[C@H](OC(=O)c3cccc([N+](=O)[O-])c3)C(C)(C)O[C@H]2CC[C@@]1(C)O,Activity,[1],Non-toxic
same,IC50,MDA-MB-231 [2],34.7 µM
same,IC50,MCF7,36 µM
same,IC50,MDA-MB-231 [3],5.9 µM
same,IC50,MDA-MB-231 [3]; read-out: pIC50 (converted),5.9 µM
same,Activity,[4],Non-toxic
CC1=CC[C@H]2[C@H](CC[C@]2(C)O)C(C)(C)[C@@H]1CC[C@H]1[C@]2(C)CC[C@H](OC(=O)c3ccccc3[N+](=O)[O-])C(C)(C)O[C@H]2CC[C@@]1(C)O,Activity,[1],Non-toxic
same,IC50,MDA-MB-231 [2],38.7 µM
same,IC50,MCF7,5.2 µM
same,IC50,MDA-MB-231 [3],18.6 µM
same,IC50,MDA-MB-231 [3]; read-out: pIC50 (converted),18.6 µM
same,Activity,[4],Non-toxic
CC1=CC[C@H]2[C@H](CC[C@]2(C)O)C(C)(C)[C@@H]1CC[C@H]1[C@]2(C)CC[C@H](OC(=O)c3ccccc3C(F)(F)F)C(C)(C)O[C@H]2CC[C@@]1(C)O,Activity,[1],Non-toxic
same,IC50,MDA-MB-231 [2],31.5 µM
same,IC50,MCF7,19.2 µM
same,IC50,MDA-MB-231 [3],34.5 µM
same,IC50,MDA-MB-231 [3]; read-out: pIC50 (converted),34.5 µM
same,Activity,[4],Non-toxic
CC1=CC[C@H]2[C@H](CC[C@]2(C)O)C(C)(C)[C@@H]1CC[C@H]1[C@]2(C)CC[C@H](OC(=O)c3ccco3)C(C)(C)O[C@H]2CC[C@@]1(C)O,Activity,[1],Non-toxic
same,IC50,MDA-MB-231 [2],14 µM
same,IC50,MCF7,25.7 µM
same,IC50,MDA-MB-231 [3],9.3 µM
same,IC50,MDA-MB-231 [3]; read-out: pIC50 (converted),9.29 µM
same,Activity,[4],Non-toxic
CC1=CC[C@H]2[C@H](CC[C@]2(C)O)C(C)(C)[C@@H]1CC[C@H]1[C@]2(C)CC[C@H](OC(=O)c3ccc([N+](=O)[O-])cc3)C(C)(C)O[C@H]2CC[C@@]1(C)O,Activity,[1],Non-toxic
same,IC50,MDA-MB-231 [2],8.9 µM
same,IC50,MCF7,21.6 µM
same,IC50,MDA-MB-231 [3],3.4 µM
same,IC50,MDA-MB-231 [3]; read-out: pIC50 (converted),3.35 µM
same,Activity,[4],Non-toxic
CC1=CC[C@H]2[C@H](CC[C@]2(C)O)C(C)(C)[C@@H]1CC[C@H]1[C@]2(C)CC[C@H](OC(=O)c3ccc(Cl)c(Cl)c3)C(C)(C)O[C@H]2CC[C@@]1(C)O,Activity,[1],Non-toxic
same,IC50,MDA-MB-231 [2],8.1 µM
same,IC50,MCF7,11.9 µM
same,IC50,MDA-MB-231 [3],1.3 µM
same,IC50,MDA-MB-231 [3]; read-out: pIC50 (converted),1.3 µM
same,Activity,[4],Non-toxic
CC1=CC[C@H]2[C@H](CC[C@]2(C)O)C(C)(C)[C@@H]1CC[C@H]1[C@]2(C)CC[C@H](OC(=O)c3cccc(C(F)(F)F)c3)C(C)(C)O[C@H]2CC[C@@]1(C)O,Activity,[1],Non-toxic
same,IC50,MDA-MB-231 [2],36.3 µM
same,IC50,MCF7,37.9 µM
same,IC50,MDA-MB-231 [3],6.1 µM
same,IC50,MDA-MB-231 [3]; read-out: pIC50 (converted),6.1 µM
same,Activity,[4],Non-toxic
CC1=CC[C@H]2[C@H](CC[C@]2(C)O)C(C)(C)[C@@H]1CC[C@H]1[C@]2(C)CC[C@H](OC(=O)c3ccc([N+](=O)[O-])o3)C(C)(C)O[C@H]2CC[C@@]1(C)O,Activity,[1],Non-toxic
same,IC50,MDA-MB-231 [2],11.1 µM
same,IC50,MCF7,21.3 µM
same,IC50,MDA-MB-231 [3],3.5 µM
same,IC50,MDA-MB-231 [3]; read-out: pIC50 (converted),3.48 µM
same,Activity,[4],Non-toxic
CC1=CC[C@H]2[C@@H]1CC=C(C)[C@@H](CC[C@H]1[C@]3(C)CC[C@H](O)C(C)(C)O[C@H]3CC[C@@]1(C)O)C2(C)C,IC50,MDA-MB-231 [2],> 50 µM
same,IC50,MCF7,> 50 µM
same,IC50,MDA-MB-231 [3],35.3 µM
same,IC50,MDA-MB-231 [3]; read-out: pIC50 (converted),35.3 µM
C=C(C)C(CC[C@@]1(C)C(CC[C@H]2[C@]3(C)CC[C@H](O)C(C)(C)O[C@H]3CC[C@@]2(C)O)=C(C)CC[C@H]1O)OO (some centres not stated) [SIPHONELLINOL E],IC50,MDA-MB-231 [2],> 50 µM
same,IC50,MCF7,31.2 µM
same,IC50,MDA-MB-231 [3],39 µM
same,IC50,MDA-MB-231 [3]; read-out: pIC50 (converted),39 µM
CC1=CC[C@H]2[C@H](CC[C@]2(C)O)C(C)(C)[C@@H]1CC[C@H]1[C@]2(C)CC[C@H](OC(=O)c3ccc(C(F)(F)F)c(F)c3)C(C)(C)O[C@H]2CC[C@@]1(C)O,Activity,[1],Non-toxic
same,IC50,MDA-MB-231 [2],22.2 µM
same,IC50,MCF7,> 50 µM
same,IC50,MDA-MB-231 [3],11.9 µM
same,IC50,MDA-MB-231 [3]; read-out: pIC50 (converted),11.9 µM
same,Activity,[4],Non-toxic
CC1=CC[C@H]2[C@H](CC[C@]2(C)O)C(C)(C)[C@@H]1CC[C@H]1[C@]2(C)CC/C(=N/OC(=O)c3ccccc3)C(C)(C)O[C@H]2CC[C@@]1(C)O,IC50,MDA-MB-231 [2],27.4 µM
same,IC50,MCF7,25.6 µM
same,IC50,MDA-MB-231 [3],28.5 µM
same,IC50,MDA-MB-231 [3]; read-out: pIC50 (converted),28.5 µM
CC1=CC[C@H]2[C@@H]1CC=C(C)[C@@H](CC[C@H]1[C@]3(C)CC[C@H](OC(=O)CCC(=O)O)C(C)(C)O[C@H]3CC[C@@]1(C)O)C2(C)C,IC50,MDA-MB-231 [2],29.6 µM
same,IC50,MCF7,> 50 µM
same,IC50,MDA-MB-231 [3],21 µM
CC1(C)O[C@H]2CC[C@@](C)(O)[C@@H](CC[C@H]3C(C)(C)[C@@]4(O)CC[C@](C)(O)[C@H]4C[C@H]4O[C@]43C)[C@]2(C)CC[C@@H]1O,IC50,MDA-MB-231 [2],> 50 µM
same,IC50,MCF7,> 50 µM
same,IC50,MDA-MB-231 [3],> 50 µM
same,IC50,MDA-MB-231 [3]; read-out: pIC50 (converted),36.2 µM
CC1=CC[C@H]2[C@H](CC[C@]2(C)O)C(C)(C)[C@@H]1CC[C@@H]1[C@](C)(O)[C@H](O)C[C@@H]2OC(C)(C)[C@@H](O)CC[C@]21C,IC50,MDA-MB-231 [2],> 50 µM
same,IC50,MCF7,> 50 µM
same,IC50,MDA-MB-231 [3],> 50 µM
same,IC50,MDA-MB-231 [3]; read-out: pIC50 (converted),22.4 µM
CC1=CC[C@H]2[C@H](CC[C@]2(C)O)C(C)(C)[C@@H]1CC[C@H]1[C@]2(C)CC[C@H](OC(=O)c3ccccc3Cl)C(C)(C)O[C@H]2CC[C@@]1(C)O,Activity,[1],Non-toxic
same,IC50,MDA-MB-231 [2],24.3 µM
same,IC50,MCF7,12.1 µM
same,IC50,MDA-MB-231 [3],6.1 µM
same,Activity,[4],Non-toxic
CC1=CC[C@H]2[C@H](CC[C@]2(C)O)C(C)(C)[C@@H]1CC[C@H]1[C@]2(C)CC[C@H](OC(=O)c3ccc(C(F)(F)F)cc3)C(C)(C)O[C@H]2CC[C@@]1(C)O,Activity,[1],Non-toxic
same,IC50,MDA-MB-231 [2],19.5 µM
same,IC50,MCF7,23.4 µM
same,IC50,MDA-MB-231 [3],7.8 µM
same,IC50,MDA-MB-231 [3]; read-out: pIC50 (converted),7.8 µM
same,Activity,[4],Non-toxic
